# Reference: ChEMBL document CHEMBL4823282, “Novel Broad-Spectrum Antimicrobial Peptide Derived from Anoplin and Its Activity on Bacterial Pneumonia in Mice” (J Med Chem, 2021)
# The source made the active and inactive calls. The calls are words filed in the database; no cut-off is given here. Where a SMILES comes first, the peptide text is derived from it.
# Key:
# Erythrocyte = assay: Hemolytic activity in BALB/C mouse erythrocytes incubated for 1 hr by absorbance method; type: ADME, cell-based
# Staphylococcus aureus [1] = assay: Antibacterial activity against Staphylococcus aureus ATCC 25923 at 0.5 to 1 times MIC incubated for 24 hrs by crystal violet staining based assay; type: functional, organism-based
# [2] = Selectivity ratio of MHC10 for BALB/C mouse erythrocytes to MIC for bacteria; type: toxicity
# [3] = Selectivity ratio of MHC10 for BALB/C mouse erythrocytes to MIC for gram positive bacteria; type: toxicity
# Staphylococcus aureus [4] = assay: Antibacterial activity against Staphylococcus aureus ATCC 25923 incubated with 0.02 ug/ml trypsin for 6 hrs followed by bacterial addition and measured after 18 hrs by CLSI based broth dilution method; type: functional, organism-based; conditions: dose 0.02 µg/ml, time 23.0 hrs
# Klebsiella pneumoniae [5] = assay: Antibacterial activity against Klebsiella pneumoniae ATCC 700603 incubated with 0.02 ug/ml chymotrypsin for 6 hrs followed by bacterial addition and measured after 18 hrs by CLSI based broth dilution method; type: functional, organism-based; conditions: dose 0.02 µg/ml, time 23.0 hrs
# Bacteria [6] = assay: Antibacterial activity against Gram-negative bacteria incubated for 18 hrs by CLSI based broth dilution method; type: functional
# [7] = Selectivity ratio of MHC10 for BALB/C mouse erythrocytes to MIC for fungi; type: toxicity
# Klebsiella pneumoniae [8] = assay: Antibacterial activity against Klebsiella pneumoniae ATCC 700603 incubated for 18 hrs by CLSI based broth dilution method; type: functional
# Enterococcus faecalis = assay: Antibacterial activity against Enterococcus faecalis ATCC 29212 incubated for 18 hrs by CLSI based broth dilution method; type: functional
# [9] = Selectivity ratio of MHC10 for BALB/C mouse erythrocytes to MIC for gram-negative bacteria; type: toxicity
# Fungi = assay: Antibacterial activity against fungi incubated for 18 hrs by CLSI based broth dilution method; type: functional
# Acinetobacter baumannii = assay: Antibacterial activity against Acinetobacter baumannii ATCC 19606 incubated for 18 hrs by CLSI based broth dilution method; type: functional; conditions: ATCC 19606 = CIP 70.34 = JCM 6841
# Bacteria [10] = assay: Antibacterial activity against bacteria incubated for 18 hrs by CLSI based broth dilution method; type: functional
# Staphylococcus aureus [11] = assay: Antibacterial activity against Staphylococcus aureus ATCC 25923 incubated with 0.02 ug/ml chymotrypsin for 6 hrs followed by bacterial addition and measured after 18 hrs by CLSI based broth dilution method; type: functional, organism-based; conditions: dose 0.02 µg/ml, time 23.0 hrs
# Bacteria [12] = assay: Antibacterial activity against Gram-positive bacteria incubated for 18 hrs by CLSI based broth dilution method; type: functional
# Escherichia coli [13] = assay: Antibiofilm activity against Escherichia coli ATCC 25922 at 4 times MIC incubated for 24 hrs by crystal violet staining based assay; type: functional, organism-based
# Klebsiella pneumoniae [14] = assay: Antibacterial activity against Klebsiella pneumoniae ATCC 700603 incubated with 0.02 ug/ml trypsin for 6 hrs followed by bacterial addition and measured after 18 hrs by CLSI based broth dilution method; type: functional, organism-based; conditions: dose 0.02 µg/ml, time 23.0 hrs
# Klebsiella pneumoniae [15] = assay: Antibiofilm activity against Klebsiella pneumoniae ATCC 700603 at 2 to 4 times MIC incubated for 24 hrs by crystal violet staining based assay; type: functional, organism-based
# Escherichia coli [16] = assay: Synergistic antibacterial activity against Escherichia coli ATCC 25922 at 2 times MIC incubated for 18 to 24 hrs in presence of 2 times MIC of polymyxin B by broth microdilution assay based checkerboard assay; type: functional; conditions: time 18-24 hrs
# Klebsiella pneumoniae [17] = assay: Synergistic antibacterial activity against Klebsiella pneumoniae ATCC 700603 at 2 times MIC incubated for 18 to 24 hrs in presence of 2 times MIC of polymyxin B by broth microdilution assay based checkerboard assay; type: functional; conditions: time 18-24 hrs
# Escherichia coli [18] = assay: Synergistic antibacterial activity against Escherichia coli ATCC 25922 at 2 times MIC incubated for 18 to 24 hrs in presence of 2 times MIC of rifampicin by broth microdilution assay based checkerboard assay; type: functional; conditions: time 18-24 hrs
# Pseudomonas aeruginosa [19] = assay: Antibacterial activity against Pseudomonas aeruginosa ATCC 27853 incubated for 18 hrs by CLSI based broth dilution method; type: functional
# Pseudomonas aeruginosa [20] = assay: Synergistic antibacterial activity against Pseudomonas aeruginosa ATCC 27853 at 2 times MIC incubated for 18 to 24 hrs in presence of 2 times MIC of rifampicin by broth microdilution assay based checkerboard assay; type: functional; conditions: time 18-24 hrs
# Escherichia coli [21] = assay: Antibacterial activity against Escherichia coli ATCC 25922 incubated for 18 hrs by CLSI based broth dilution method; type: functional
# Staphylococcus aureus [22] = assay: Antibacterial activity against Staphylococcus aureus ATCC 25923 incubated for 18 hrs by CLSI based broth dilution method; type: functional
# Bacillus subtilis = assay: Antibacterial activity against Bacillus subtilis ATCC 23857 incubated for 18 hrs by CLSI based broth dilution method; type: functional
# Escherichia coli [23] = assay: Synergistic antibacterial activity against Escherichia coli ATCC 25922 at 2 times MIC incubated for 18 to 24 hrs in presence of 2 times MIC of gentamycin by broth microdilution assay based checkerboard assay; type: functional; conditions: time 18-24 hrs
# Pseudomonas aeruginosa [24] = assay: Synergistic antibacterial activity against Pseudomonas aeruginosa ATCC 27853 at 2 times MIC incubated for 18 to 24 hrs in presence of 2 times MIC of polymyxin B by broth microdilution assay based checkerboard assay; type: functional; conditions: time 18-24 hrs
# [25] = Cytotoxicity against human glomerular mesangial cells incubated for 12 hrs by MTT assay; type: cell-based; conditions: Glomerular mesangial cell
# Klebsiella pneumoniae [26] = assay: Synergistic antibacterial activity against Klebsiella pneumoniae ATCC 700603 at 2 times MIC incubated for 18 to 24 hrs in presence of 2 times MIC of rifampicin by broth microdilution assay based checkerboard assay; type: functional; conditions: time 18-24 hrs
# [27] = test system: Staphylococcus epidermidis; assay: Antibacterial activity against Staphylococcus epidermidis ATCC 12228 incubated for 18 hrs by CLSI based broth dilution method; type: functional
# Klebsiella pneumoniae [28] = assay: Synergistic antibacterial activity against Klebsiella pneumoniae ATCC 700603 at 2 times MIC incubated for 18 to 24 hrs in presence of 2 times MIC of gentamycin by broth microdilution assay based checkerboard assay; type: functional; conditions: time 18-24 hrs
# Pseudomonas aeruginosa [29] = assay: Antibacterial activity against gentamicin-resistant Pseudomonas aeruginosa ATCC 27853 incubated for 18 hrs by CLSI based broth dilution method; type: functional
# Pseudomonas aeruginosa [30] = assay: Antibacterial activity against rifampin-resistant Pseudomonas aeruginosa ATCC 27853 incubated for 18 hrs by CLSI based broth dilution method; type: functional
# Pseudomonas aeruginosa [31] = assay: Antibacterial activity against gentamicin-resistant Pseudomonas aeruginosa ATCC 27853 incubated for 18 hrs in presence of EDTA by CLSI based broth dilution method; type: functional, organism-based
# Klebsiella pneumoniae [32] = assay: Bactericidal activity against Klebsiella pneumoniae 700603 at 2MIC by time-kill assay relative to control; type: functional; conditions: 2M, TDE = time-dependent effect
# Staphylococcus aureus [33] = assay: Bactericidal activity against Staphylococcus aureus ATCC 25923 at 2MIC by time-kill assay; type: functional, organism-based; conditions: time 24.0 hrs, TDE = time-dependent effect
Molecule,MHC10 (Erythrocyte) [µM],selectivity ratio [2],selectivity ratio at 18 h [3],MIC (Bacteria [6]) [µM],selectivity ratio [7],MIC (Klebsiella pneumoniae [8]) [µM],MIC (Enterococcus faecalis) [µM],selectivity ratio [9],MIC (Fungi) [µM],MIC (Acinetobacter baumannii) [µM],MIC (Bacteria [10]) [µM],MIC (Bacteria [12]) [µM],MIC (Pseudomonas aeruginosa [19]) [µM],FIC (Pseudomonas aeruginosa [20]),MIC (Escherichia coli [21]) [µM],MIC (Staphylococcus aureus [22]) [µM],MIC (Bacillus subtilis) [µM],FIC (Pseudomonas aeruginosa [24]),IC50 [25] [µM],MIC [27] [µM],also measured
CC[C@H](C)[C@H](NC(=O)CN)C(=O)NCC(=O)N[C@@H](C)C(=O)N[C@H](C(=O)N[C@@H](CC(C)C)C(=O)N[C@@H](CCCCN)C(=O)N[C@H](C(=O)N[C@@H](CC(C)C)C(=O)N[C@H](C(=O)N[C@H](C(=O)NCC(=O)N[C@@H](CC(C)C)C(=O)N1CCC[C@H]1C(=O)N[C@@H](C)C(=O)N[C@@H](CC(C)C)C(=O)N[C@H](C(=O)N[C@@H](CO)C(=O)N[C@@H](Cc1c[nH]c2ccccc12)C(=O)N[C@H](C(=O)N[C@@H](CCCCN)C(=O)N[C@@H](CCCNC(=N)N)C(=O)N[C@@H](CCCCN)C(=O)N[C@@H](CCCNC(=N)N)C(=O)N[C@@H](CCC(N)=O)C(=O)N[C@@H](CCC(N)=O)C(N)=O)[C@@H](C)CC)[C@@H](C)CC)[C@@H](C)O)[C@@H](C)O)C(C)C)C(C)C [MELITTIN],2.26,57,0.95,6.73,57,16,4,0.34,4,2,4,2.38,,,,,,,,,Activity (Staphylococcus aureus [1]): Active; Activity (Staphylococcus aureus [4]): inactive; Activity (Klebsiella pneumoniae [5]): inactive; Activity (Staphylococcus aureus [11]): inactive; Activity (Escherichia coli [13]): Active; Activity (Klebsiella pneumoniae [14]): inactive; Activity (Klebsiella pneumoniae [15]): Active
CC(C)C[C@H](NC(=O)CN)C(=O)N[C@@H](Cc1c[nH]c2ccccc12)C(=O)N[C@@H](CCCCN)C(=O)N[C@@H](CCCNC(=N)N)C(=O)N[C@@H](Cc1c[nH]c2ccccc12)C(=O)N[C@@H](CCCCN)C(=O)N[C@@H](CCCCN)C(=O)N[C@@H](Cc1ccccc1)C(=O)N[C@@H](Cc1c[nH]c2ccccc12)C(N)=O (H-GLWKRWKKFW-NH2),83.63,8.06,6.19,8,8.06,8,32,10.4,10.4,16,10.4,13.5,8,0.3125,8,8,8,0.25,39,16,FIC (Escherichia coli [16]): 0.3125; FIC (Klebsiella pneumoniae [17]): 0.5625; FIC (Escherichia coli [18]): 0.5; FIC (Escherichia coli [23]): 0.5; FIC (Klebsiella pneumoniae [26]): 0.5625; FIC (Klebsiella pneumoniae [28]): 0.75
GENTAMICIN,,,,,,16,4,,,< 1,,,4,,4,< 1,< 1,,,< 1,MIC (Pseudomonas aeruginosa [29]): 64 µM; MIC (Pseudomonas aeruginosa [30]): 0.5 µM; MIC (Pseudomonas aeruginosa [31]): 8 µM
CN[C@H](CC(C)C)C(=O)N[C@H]1C(=O)N[C@@H](CC(N)=O)C(=O)N[C@H]2C(=O)N[C@H]3C(=O)N[C@H](C(=O)N[C@H](C(=O)O)c4cc(O)cc(O)c4-c4cc3ccc4O)[C@H](O)c3ccc(c(Cl)c3)Oc3cc2cc(c3O[C@@H]2O[C@H](CO)[C@@H](O)[C@H](O)[C@H]2O[C@H]2C[C@](C)(N)[C@H](O)[C@H](C)O2)Oc2ccc(cc2Cl)[C@H]1O [VANCOMYCIN],,,,,,≥ 128,< 1,,,< 1,,,64,,64,< 1,< 1,,,< 1,Activity (Klebsiella pneumoniae [32]): Tde; Activity (Staphylococcus aureus [33]): Tde
N=C(N)NCCC[C@H](NC(=O)[C@H](CCCCN)NC(=O)[C@H](Cc1c[nH]c2ccccc12)NC(=O)[C@H](Cc1c[nH]c2ccccc12)NC(=O)[C@@H](N)CCCCN)C(=O)N[C@@H](Cc1c[nH]c2ccccc12)C(=O)N[C@@H](CCCCN)C(=O)N[C@@H](CCCCN)C(=O)N[C@@H](Cc1c[nH]c2ccccc12)C(=O)N[C@@H](Cc1c[nH]c2ccccc12)C(N)=O (H-KWWKRWKKWW-NH2),77.65,8.16,9.71,11.3,8.16,16,16,6.87,9.51,8,9.51,8,16,0.3125,16,8,4,0.25,19.8,8,
CC(C)C[C@H](NC(=O)[C@H](Cc1c[nH]c2ccccc12)NC(=O)CN)C(=O)N[C@@H](CCCCN)C(=O)N[C@@H](CCCNC(=N)N)C(=O)N[C@@H](Cc1c[nH]c2ccccc12)C(=O)N[C@@H](CCCCN)C(=O)N[C@H](C(=O)N[C@@H](CC(C)C)C(=O)N[C@@H](Cc1c[nH]c2ccccc12)C(N)=O)[C@@H](C)O (H-GWLKRWKTLW-NH2),320,15.4,11.9,16,15.4,16,64,20,20.8,32,20.8,26.9,16,0.3125,16,16,16,0.25,105,32,
CC[C@H](C)[C@H](NC(=O)[C@H](CCCNC(=N)N)NC(=O)[C@H](CCCCN)NC(=O)[C@H](Cc1c[nH]c2ccccc12)NC(=O)[C@H](Cc1c[nH]c2ccccc12)NC(=O)CN)C(=O)N[C@@H](CCCCN)C(=O)N[C@H](C(=O)N[C@@H](Cc1c[nH]c2ccccc12)C(=O)N[C@@H](Cc1c[nH]c2ccccc12)C(N)=O)[C@@H](C)O (H-GWWKRIKTWW-NH2),102.54,14,12.8,6.7,14,8,16,15.3,7.34,8,7.34,8,8,0.5,8,4,8,0.5,25.2,8,
